Results reported in PubChem BioAssay (NCI).
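The compound was tested at five concentrations on cells cultured in 96-well plates, with a 48-hour exposure period. Abbreviation: GI50, concentration required for 50% inhibition of growth. Definition used: TGI = concentration required for complete inhibition of growth.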

Columns and labels:
Assay in all cases: NCI tumour cell line growth inhibition, 48 h
UO-31 renal = test system: UO-31 renal
BT-549 breast = test system: BT-549 breast
NCI-H522 lung = test system: NCI-H522 lung
MALME-3M melanoma = test system: MALME-3M melanoma
MDA-MB-435 = test system: MDA-MB-435
OVCAR-3 ovarian = test system: OVCAR-3 ovarian
HCC-2998 colon = test system: HCC-2998 colon
LOX IMVI melanoma = test system: LOX IMVI melanoma
EKVX NSCLC = test system: EKVX NSCLC
RXF 393 renal = test system: RXF 393 renal
OVCAR-5 ovarian = test system: OVCAR-5 ovarian
SK-MEL-5 melanoma = test system: SK-MEL-5 melanoma
CCRF-CEM leukemia = test system: CCRF-CEM leukemia
PC-3 prostate = test system: PC-3 prostate
MOLT-4 leukemia = test system: MOLT-4 leukemia
HS 578T breast = test system: HS 578T breast
CAKI-1 renal = test system: CAKI-1 renal
SW-620 colon = test system: SW-620 colon
K-562 leukemia = test system: K-562 leukemia
HOP-92 NSCLC = test system: HOP-92 NSCLC
786-0 renal = test system: 786-0 renal
ACHN renal = test system: ACHN renal
T-47D breast = test system: T-47D breast
M14 melanoma = test system: M14 melanoma
U251 CNS = test system: U251 CNS
NCI/ADR-RES ovarian = test system: NCI/ADR-RES ovarian
HOP-62 NSCLC = test system: HOP-62 NSCLC
SK-OV-3 ovarian = test system: SK-OV-3 ovarian
SNB-19 CNS = test system: SNB-19 CNS
SF-295 CNS = test system: SF-295 CNS
SK-MEL-28 melanoma = test system: SK-MEL-28 melanoma
TK-10 renal = test system: TK-10 renal
A549 NSCLC = test system: A549 NSCLC
SNB-75 CNS = test system: SNB-75 CNS
SN12C renal = test system: SN12C renal
IGROV1 ovarian = test system: IGROV1 ovarian
HCT-15 colon = test system: HCT-15 colon
NCI-H23 lung = test system: NCI-H23 lung
SR leukemia = test system: SR leukemia
NCI-H226 lung = test system: NCI-H226 lung
RPMI-8226 leukemia = test system: RPMI-8226 leukemia
SF-539 CNS = test system: SF-539 CNS
OVCAR-8 ovarian = test system: OVCAR-8 ovarian
MCF7 breast = test system: MCF7 breast
UACC-62 melanoma = test system: UACC-62 melanoma
COLO 205 colon = test system: COLO 205 colon
OVCAR-4 ovarian = test system: OVCAR-4 ovarian
SK-MEL-2 melanoma = test system: SK-MEL-2 melanoma
SF-268 CNS = test system: SF-268 CNS
HT29 colon = test system: HT29 colon
KM12 colon = test system: KM12 colon
UACC-257 melanoma = test system: UACC-257 melanoma
MDA-MB-231 breast = test system: MDA-MB-231 breast
DU-145 prostate = test system: DU-145 prostate
HL-60(TB) leukemia = test system: HL-60(TB) leukemia
A498 renal = test system: A498 renal
HCT-116 colon = test system: HCT-116 colon
NCI-H460 lung = test system: NCI-H460 lung

## C#CC#CC#CC#CC#CC#CC#CC#CC[C@@H]1OC[C@H](COC(=O)O[C@@H](C(=O)O[C@H]2C[C@@]3(O)[C@@H](OC(=O)c4ccccc4)[C@@H]4[C@]5(OC(C)=O)CO[C@@H]5C[C@H](O)[C@@]4(C)C(=O)[C@H](OC(C)=O)C(=C2C)C3(C)C)[C@@H](NC(=O)c2ccccc2)c2ccccc2)O1
UO-31 renal
  GI50: > 25 µM
  TGI: > 25 µM
BT-549 breast
  GI50: 3.71 µM
  TGI: > 25 µM
NCI-H522 lung
  GI50: 1.81 µM
  TGI: > 25 µM
MALME-3M melanoma
  GI50: 2.07 µM
  TGI: > 25 µM
MDA-MB-435
  GI50: 0.0987 µM
  TGI: 0.398 µM
OVCAR-3 ovarian
  GI50: 0.682 µM
  TGI: > 25 µM
HCC-2998 colon
  GI50: 1.26 µM
  TGI: > 25 µM
LOX IMVI melanoma
  GI50: 0.708 µM
  TGI: > 25 µM
EKVX NSCLC
  GI50: > 25 µM
  TGI: > 25 µM
RXF 393 renal
  GI50: > 5.16 µM
  TGI: > 25 µM
OVCAR-5 ovarian
  GI50: 1.58 µM
  TGI: > 25 µM
SK-MEL-5 melanoma
  GI50: 3.13 µM
  TGI: > 25 µM
CCRF-CEM leukemia
  GI50: 1.25 µM
  TGI: > 25 µM
PC-3 prostate
  GI50: 1.58 µM
  TGI: > 25 µM
MOLT-4 leukemia
  GI50: 1.85 µM
  TGI: > 25 µM
HS 578T breast
  GI50: 0.673 µM
  TGI: > 25 µM
CAKI-1 renal
  GI50: 5.85 µM
  TGI: > 25 µM
SW-620 colon
  GI50: 0.819 µM
  TGI: > 25 µM
K-562 leukemia
  GI50: 1.04 µM
  TGI: > 25 µM
HOP-92 NSCLC
  GI50: > 18.5 µM
  TGI: > 25 µM
786-0 renal
  GI50: > 25 µM
  TGI: > 25 µM
ACHN renal
  GI50: > 25 µM
  TGI: > 25 µM
T-47D breast
  GI50: 1.07 µM
  TGI: > 25 µM
M14 melanoma
  GI50: 1.09 µM
  TGI: 24.9 µM
U251 CNS
  GI50: 1.42 µM
  TGI: > 25 µM
NCI/ADR-RES ovarian
  GI50: > 25 µM
  TGI: > 25 µM
HOP-62 NSCLC
  GI50: 5.13 µM
  TGI: > 25 µM
SK-OV-3 ovarian
  GI50: 3.32 µM
  TGI: > 25 µM
SNB-19 CNS
  GI50: 3.88 µM
  TGI: > 25 µM
SF-295 CNS
  TGI: > 25 µM
SK-MEL-28 melanoma
  GI50: 3.88 µM
  TGI: > 25 µM
TK-10 renal
  GI50: > 25 µM
  TGI: > 25 µM
A549 NSCLC
  GI50: 1.42 µM
  TGI: > 25 µM
SNB-75 CNS
  GI50: 0.114 µM
  TGI: 1.48 µM
SN12C renal
  GI50: 4.36 µM
  TGI: > 25 µM
IGROV1 ovarian
  GI50: 1.29 µM
  TGI: > 25 µM
HCT-15 colon
  GI50: > 25 µM
  TGI: > 25 µM
NCI-H23 lung
  GI50: 2.24 µM
  TGI: > 25 µM
SR leukemia
  GI50: 0.862 µM
  TGI: > 25 µM
NCI-H226 lung
  GI50: > 21.8 µM
  TGI: > 25 µM
RPMI-8226 leukemia
  GI50: 0.436 µM
  TGI: > 25 µM
SF-539 CNS
  GI50: 1.2 µM
  TGI: > 25 µM
OVCAR-8 ovarian
  GI50: 1.57 µM
  TGI: > 25 µM
MCF7 breast
  GI50: 0.348 µM
  TGI: > 25 µM
UACC-62 melanoma
  GI50: 5.58 µM
  TGI: > 25 µM
COLO 205 colon
  GI50: 0.665 µM
  TGI: > 10.8 µM
OVCAR-4 ovarian
  GI50: > 21 µM
  TGI: > 25 µM
SK-MEL-2 melanoma
  GI50: 5.65 µM
  TGI: > 25 µM
SF-268 CNS
  GI50: 1.93 µM
  TGI: > 25 µM
HT29 colon
  GI50: 0.355 µM
  TGI: > 25 µM
KM12 colon
  GI50: 0.683 µM
  TGI: > 25 µM
UACC-257 melanoma
  GI50: 6.61 µM
  TGI: > 25 µM
MDA-MB-231 breast
  GI50: 4.17 µM
  TGI: > 25 µM
DU-145 prostate
  GI50: 0.681 µM
  TGI: > 25 µM
HL-60(TB) leukemia
  GI50: 0.819 µM
  TGI: > 18.7 µM
A498 renal
  GI50: 1.39 µM
  TGI: > 23.5 µM
HCT-116 colon
  GI50: 0.596 µM
  TGI: > 25 µM
NCI-H460 lung
  GI50: 0.185 µM
  TGI: > 25 µM
